The subject of the experiment is A. pullulans NAC8 yellow laccase. The experiment in a line: absorbance at […] nm, double reciprocal plot. The settings on record: guaiacol 0.1-3.0 mM; standard assay: acetate buffer pH 5.0, 25 °C. The class given is biochemical, Aureobasidium pullulans.

Broadly, the Km is the concentration of substrate that gives half-maximal velocity. As for `COc1ccccc1O` [guaiacol, 2-methoxyphenol], the Km was found to be 1050 ± 120 µM.

The values above are taken from PMC6299892 (Journal of Genetic Engineering & Biotechnology, 2016).
